Experimental data as given in PubChem BioAssay (NCI).
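Cells were grown in 96-well plates and exposed to each compound for 48 hours at five concentrations; endpoints were interpolated linearly between bracketing concentrations, or set to the highest concentration if not reached. Definition used: TGI = concentration required for complete inhibition of growth.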

Columns and labels:
Experiment in all cases: NCI tumour cell line growth inhibition, 48 h
[1] = tested on: 786-0 renal
[2] = tested on: A498 renal
[3] = tested on: ACHN renal
[4] = tested on: CCRF-CEM leukemia
[5] = tested on: DU-145 prostate
[6] = tested on: EKVX NSCLC
[7] = tested on: HCC-2998 colon
[8] = tested on: HCT-116 colon
[9] = tested on: HCT-15 colon
[10] = tested on: HL-60(TB) leukemia
[11] = tested on: HOP-62 NSCLC
[12] = tested on: HOP-92 NSCLC
[13] = tested on: HS 578T breast
[14] = tested on: HT29 colon
[15] = tested on: IGROV1 ovarian
[16] = tested on: K-562 leukemia
[17] = tested on: LOX IMVI melanoma
[18] = tested on: M14 melanoma
[19] = tested on: MCF7 breast
[20] = tested on: MDA-MB-231 breast
[21] = tested on: MDA-N
[22] = tested on: MOLT-4 leukemia
[23] = tested on: NCI-H226 lung
[24] = tested on: NCI-H23 lung
[25] = tested on: NCI-H460 lung
[26] = tested on: NCI-H522 lung
[27] = tested on: NCI/ADR-RES ovarian
[28] = tested on: OVCAR-3 ovarian
[29] = tested on: OVCAR-5 ovarian
[30] = tested on: OVCAR-8 ovarian
[31] = tested on: PC-3 prostate
[32] = tested on: RPMI-8226 leukemia
[33] = tested on: RXF 393 renal
[34] = tested on: SF-268 CNS
[35] = tested on: SF-295 CNS
[36] = tested on: SF-539 CNS
[37] = tested on: SK-MEL-2 melanoma
[38] = tested on: SK-MEL-28 melanoma
[39] = tested on: SK-MEL-5 melanoma
[40] = tested on: SK-OV-3 ovarian
[41] = tested on: SNB-75 CNS
[42] = tested on: SR leukemia
[43] = tested on: SW-620 colon
[44] = tested on: T-47D breast
[45] = tested on: TK-10 renal
[46] = tested on: U251 CNS
[47] = tested on: UACC-257 melanoma
[48] = tested on: UO-31 renal

CC1=NN(c2cccc(Cl)c2)C(=N/c2nc3ccccc3s2)/C1=C\c1ccc(Cl)cc1
TGI [1]: 34 µM | TGI [2]: 43.9 µM | TGI [3]: 58.9 µM | TGI [4]: 96.9 µM | TGI [5]: > 100 µM | TGI [6]: > 100 µM | TGI [7]: 31 µM | TGI [8]: 30.7 µM | TGI [9]: 28.9 µM | TGI [10]: 54.5 µM | TGI [11]: 54.5 µM | TGI [12]: 36.1 µM | TGI [13]: 60 µM | TGI [14]: 34 µM | TGI [15]: 33.1 µM | TGI [16]: > 100 µM | TGI [17]: 34 µM | TGI [18]: 52.2 µM | TGI [19]: 65.3 µM | TGI [20]: 49.2 µM | TGI [21]: 56.1 µM | TGI [22]: 73.7 µM | TGI [23]: 43.8 µM | TGI [24]: 39.3 µM | TGI [25]: 34.3 µM | TGI [26]: 35.7 µM | TGI [27]: 50.7 µM | TGI [28]: 52.5 µM | TGI [29]: 40.4 µM | TGI [30]: 39.8 µM | TGI [31]: 31.3 µM | TGI [32]: > 100 µM | TGI [33]: 42.1 µM | TGI [34]: 38.6 µM | TGI [35]: 61.6 µM | TGI [36]: 36.4 µM | TGI [37]: 34.2 µM | TGI [38]: 45.2 µM | TGI [39]: 32 µM | TGI [40]: 95.3 µM | TGI [41]: > 100 µM | TGI [42]: 81 µM | TGI [43]: 42.3 µM | TGI [44]: > 100 µM | TGI [45]: 64.3 µM | TGI [46]: 28.7 µM | TGI [47]: 51.2 µM | TGI [48]: 46.3 µM
